Measurements taken from paper PMC10510716.

Key:
[1] = Paal-Knorr pyrrole formation between a side-chain 1,4-diketone (DOP1, unmasked from 5-methylfuran in TFA/m-cresol 9:1) and a side-chain hydrazide (Nu2) or aminooxy group (Nu5); crude redissolved in mQ water; conditions: the molecule shown is the open-chain precursor, pH ~2.5, 5.0 mM
[2] = Paal-Knorr-like closure of a side-chain 1,4-diketone (DOP, unmasked from 5-substituted furan in TFA/m-cresol 9:1) with a side-chain alkylhydrazine (Nu1), then air oxidation to a pyridazinium staple; crude redissolved in mQ water, pH adjusted to ~7.5; conditions: the molecule shown is the open-chain precursor, pH ~7.5, 5.0 mM

SMILES: CC[C@H](C)[C@H](NC(=O)[C@H](CCCNC(=O)CCC(=O)CCC(C)=O)NC(=O)[C@H](CCCNC(=N)N)NC(=O)CNC(=O)[C@H](CCCCN)NC(=O)[C@H](CC(C)C)NC(=O)[C@H](Cc1c[nH]cn1)NC(=O)CNC(=O)[C@@H]1CCCN1C(C)=O)C(=O)NCC(=O)N[C@@H](CC(C)C)C(=O)N[C@@H](Cc1c[nH]c2ccccc12)C(=O)N[C@@H](Cc1ccc(O)cc1)C(=O)N[C@@H](C)C(=O)N[C@@H](CCCNC(=O)CCC(=O)NN)C(=O)N[C@@H](CCCCN)C(=O)N[C@@H](CCC(N)=O)C(=O)NCC(=O)N[C@@H](CCC(N)=O)C(=O)N[C@@H](CCCCN)C(=O)N[C@@H](CC(N)=O)C(=O)N[C@@H](CCCCN)C(N)=O
- ring closure, overall yield ([1]; 40-membered ring): 12.6%

SMILES: CC(=O)CCC(=O)CCC(=O)NCCC[C@H](NC(=O)[C@H](Cc1ccc(O)cc1)NC(C)=O)C(=O)N[C@@H](CCCNC(=N)N)C(=O)NCC(=O)N[C@@H](CC(=O)O)C(=O)N[C@@H](CCCNC(=O)CON)C(=O)N[C@@H](CO)C(=O)N[C@@H](Cc1c[nH]c2ccccc12)C(N)=O [Ac-Y-Orn(4,7-dioxooctanoyl)*-R-G-D-Orn(COCH2ONH2)*-S-W-NH2]
- ring closure, overall yield ([1]; 29-membered ring): 8.1%

SMILES: CC[C@H](C)[C@H](NC(=O)[C@H](CCCNC(=O)CCC(=O)CCC(C)=O)NC(=O)[C@H](CCCNC(=N)N)NC(=O)CNC(=O)[C@H](CCCCN)NC(=O)[C@H](CC(C)C)NC(=O)[C@H](Cc1c[nH]cn1)NC(=O)CNC(=O)[C@@H]1CCCN1C(C)=O)C(=O)NCC(=O)N[C@@H](CC(C)C)C(=O)N[C@@H](Cc1c[nH]c2ccccc12)C(=O)N[C@@H](Cc1ccc(O)cc1)C(=O)N[C@@H](C)C(=O)N[C@@H](CCCNC(=O)CON)C(=O)N[C@@H](CCCCN)C(=O)N[C@@H](CCC(N)=O)C(=O)NCC(=O)N[C@@H](CCC(N)=O)C(=O)N[C@@H](CCCCN)C(=O)N[C@@H](CC(N)=O)C(=O)N[C@@H](CCCCN)C(N)=O
- ring closure, overall yield ([1]; 38-membered ring): 13.9%

SMILES: CC[C@H](C)[C@H](NC(=O)[C@H](CCC(=O)O)NC(=O)[C@H](CCCNC(=N)N)NC(=O)CNC(=O)[C@H](CCCCN)NC(=O)[C@H](CC(C)C)NC(=O)[C@H](Cc1c[nH]cn1)NC(=O)CNC(=O)[C@@H]1CCCN1C(C)=O)C(=O)NCC(=O)N[C@@H](CC(C)C)C(=O)N[C@@H](Cc1c[nH]c2ccccc12)C(=O)N[C@@H](Cc1ccc(O)cc1)C(=O)N[C@@H](C)C(=O)N[C@@H](CCCNC(=O)CNN)C(=O)N[C@@H](CCCCN)C(=O)N[C@@H](CCC(N)=O)C(=O)NCC(=O)N[C@@H](CCCNC(=O)CCC(=O)CCC(C)=O)C(=O)N[C@@H](CCCCN)C(=O)N[C@@H](CC(N)=O)C(=O)N[C@@H](CCCCN)C(N)=O
- ring closure, overall yield ([2]; 29-membered ring): 18.2%

SMILES: COc1ccc(C(=O)CCC(=O)CCC(=O)NCCC[C@H](NC(C)=O)C(=O)N[C@@H](Cc2c[nH]c3ccccc23)C(=O)N[C@@H](CCCNC(=N)N)C(=O)NCC(=O)N[C@@H](CC(=O)O)C(=O)N[C@@H](Cc2ccc(O)cc2)C(=O)N[C@@H](CO)C(=O)N[C@@H](CCCNC(=O)CNN)C(N)=O)cc1
- ring closure, overall yield ([2]; 38-membered ring): 13.9%

SMILES: CC(=O)CCC(=O)CCC(=O)NCCC[C@H](NC(=O)[C@H](Cc1ccc(O)cc1)NC(C)=O)C(=O)N[C@@H](CCCNC(=N)N)C(=O)NCC(=O)N[C@@H](CC(=O)O)C(=O)N[C@@H](CCCNC(=O)CNN)C(=O)N[C@@H](CO)C(=O)N[C@@H](Cc1c[nH]c2ccccc12)C(N)=O [Ac-Y-Orn(4,7-dioxooctanoyl)*-R-G-D-Orn(COCH2NHNH2)*-S-W-NH2]
- ring closure, overall yield ([2]; 29-membered ring): 16.8%

SMILES: CC[C@H](C)[C@H](NC(=O)[C@H](CCC(=O)O)NC(=O)[C@H](CCCNC(=N)N)NC(=O)CNC(=O)[C@H](CCCCN)NC(=O)[C@H](CC(C)C)NC(=O)[C@H](Cc1c[nH]cn1)NC(=O)CNC(=O)[C@@H]1CCCN1C(C)=O)C(=O)NCC(=O)N[C@@H](CC(C)C)C(=O)N[C@@H](Cc1c[nH]c2ccccc12)C(=O)N[C@@H](Cc1ccc(O)cc1)C(=O)N[C@@H](C)C(=O)N[C@@H](CCCNC(=O)CNN)C(=O)N[C@@H](CCCCN)C(=O)N[C@@H](CCC(N)=O)C(=O)NCC(=O)N[C@@H](CCCNC(=O)CCC(=O)CCC(=O)c1ccc(OC)cc1)C(=O)N[C@@H](CCCCN)C(=O)N[C@@H](CC(N)=O)C(=O)N[C@@H](CCCCN)C(N)=O
- ring closure, overall yield ([2]; 29-membered ring): 10.9%
